Source: patent US20250034216A1, “STEREOSELECTIVE COVALENT LIGANDS FOR ONCOGENIC AND IMMUNOLOGICAL PROTEINS” (The Scripps Research Institute, priority 2021, published 2025)

How the values were obtained:
Experiment in all cases: IA-DTB cysteine engagement
Type in all cases: binding
Settings in all cases: 22Rv1 cells, 20 μM probe, 1 h, relative to DMSO
[1] = biological target: T1, ALG3_C21 (Homo sapiens, UniProt Q92685)
T1 construct: endogenous in cells; host or cells: 22Rv1
T1 sequence (Q92685 1-438): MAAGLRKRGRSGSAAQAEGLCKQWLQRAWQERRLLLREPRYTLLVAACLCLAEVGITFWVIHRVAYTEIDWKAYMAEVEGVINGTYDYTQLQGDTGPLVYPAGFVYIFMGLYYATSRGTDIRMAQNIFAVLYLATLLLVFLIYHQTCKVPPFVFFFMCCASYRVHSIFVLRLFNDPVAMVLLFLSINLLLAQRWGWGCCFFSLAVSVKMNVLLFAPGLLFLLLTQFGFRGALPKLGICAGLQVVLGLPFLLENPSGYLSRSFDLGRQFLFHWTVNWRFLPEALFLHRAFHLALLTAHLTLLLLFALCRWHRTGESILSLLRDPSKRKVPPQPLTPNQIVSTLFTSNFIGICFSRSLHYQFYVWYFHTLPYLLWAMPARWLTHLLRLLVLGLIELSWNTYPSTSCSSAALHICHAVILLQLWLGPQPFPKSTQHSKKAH
Method in brief: (§1)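 Cells were treated in situ with electrophilic probes, then lysed, and the lysates (2 mg/mL protein) were labeled with IA-DTB for 1 h at ambient temperature. After reduction, alkylation and trypsin digestion, labeled peptides were streptavidin-enriched, TMT-labeled and fractionated. Engagement ratios are probe vs DMSO reporter intensities, averaged across replicates.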

[2] = biological target: T2, ABCB8_C454 (Homo sapiens, UniProt Q9NUT2)
T2 construct: endogenous in cells; host or cells: 22Rv1
T2 sequence (Q9NUT2 26-735): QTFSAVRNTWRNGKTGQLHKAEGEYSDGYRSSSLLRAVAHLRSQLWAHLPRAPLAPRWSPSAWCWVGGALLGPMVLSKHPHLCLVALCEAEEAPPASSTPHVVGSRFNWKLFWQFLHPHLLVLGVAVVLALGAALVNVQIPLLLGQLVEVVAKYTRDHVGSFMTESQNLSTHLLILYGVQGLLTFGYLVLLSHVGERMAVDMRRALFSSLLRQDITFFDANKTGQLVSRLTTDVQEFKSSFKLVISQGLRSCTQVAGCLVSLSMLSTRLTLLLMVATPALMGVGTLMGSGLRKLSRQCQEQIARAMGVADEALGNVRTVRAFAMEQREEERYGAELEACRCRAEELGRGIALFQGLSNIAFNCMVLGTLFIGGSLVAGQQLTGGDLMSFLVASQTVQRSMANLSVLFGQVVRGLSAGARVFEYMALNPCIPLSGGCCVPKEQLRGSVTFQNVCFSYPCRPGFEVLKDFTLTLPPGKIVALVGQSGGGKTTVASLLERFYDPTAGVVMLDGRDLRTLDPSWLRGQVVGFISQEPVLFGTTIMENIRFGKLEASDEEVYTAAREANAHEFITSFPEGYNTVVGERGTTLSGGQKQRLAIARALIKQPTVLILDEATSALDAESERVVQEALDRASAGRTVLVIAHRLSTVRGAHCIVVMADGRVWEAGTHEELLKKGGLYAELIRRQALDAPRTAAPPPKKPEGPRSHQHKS
Method in brief: as §1

[3] = biological target: T3, SYNE2_C2993 (Homo sapiens, UniProt Q8WXH0)
T3 construct: endogenous in cells; host or cells: 22Rv1
Method in brief: as §1

Row | SMILES | % engagement ALG3_C21 [1] [%] | % engagement ABCB8_C454 [2] [%] | % engagement SYNE2_C2993 [3] [%]
1 | C=CC(=O)N1C[C@@H](c2ccc(Br)cc2)[C@H]1C(=O)Nc1cccc2cccnc12 [MY-1A, (2S,3R)-1-acryloyl-3-(4-bromophenyl)-N-(quinolin-8-yl)azetidine-2-carboxamide] | 90.25 | −1.25 | −20
2 | C=CC(=O)N1C[C@H](c2ccc(Br)cc2)[C@@H]1C(=O)Nc1cccc2cccnc12 [MY-1B, (2R,3S)-1-acryloyl-3-(4-bromophenyl)-N-(quinolin-8-yl)azetidine-2-carboxamide] | 68 | 14 | 76.5
3 | C=CC(=O)N1C[C@H](c2ccc(Br)cc2)[C@H]1C(=O)Nc1cccc2cccnc12 [MY-3A, (2S,3S)-1-acryloyl-3-(4-bromophenyl)-N-(quinolin-8-yl)azetidine-2-carboxamide] | 74.5 | 24 | 26.5
4 | C=CC(=O)N1C[C@H](c2ccc(Br)cc2)[C@H]1C(=O)Nc1cccc2cccnc12 [MY-3B, (2S,3S)-1-acryloyl-3-(4-bromophenyl)-N-(quinolin-8-yl)azetidine-2-carboxamide] | 84.75 | 67 | 54.5
